Data: ChEMBL document CHEMBL1201862, “PubChem BioAssay data set” (2004)
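All cell lines were grown in 96-well plates and treated with compound for 48 hours. At the GI50, growth is halved.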 Activity calls are given as the source filed them. Cut-off read from the data, not from the text of the source: active = GI50 up to about 1.1 µM and inactive = higher.

What was measured:
Assay in all cases: NCI-60 cell line screen, 48 h
NCI-H226 = system: NCI-H226
UACC-62 = system: UACC-62
HOP-92 = system: HOP-92
NCI/ADR-RES = system: NCI/ADR-RES
MOLT-4 = system: MOLT-4
IGROV-1 = system: IGROV-1
K562 = system: K562
OVCAR-5 = system: OVCAR-5
HCT-15 = system: HCT-15
MDA-MB-231 = system: MDA-MB-231
SK-MEL-5 = system: SK-MEL-5
OVCAR-4 = system: OVCAR-4
SF-295 = system: SF-295
DU-145 = system: DU-145
HCT-116 = system: HCT-116
Malme-3M = system: Malme-3M
Hs-578T = system: Hs-578T
TK-10 = system: TK-10
SR = system: SR
MDA-N = system: MDA-N

Row | SMILES | GI50 (NCI-H226) | GI50 (UACC-62) | GI50 (HOP-92) | GI50 (NCI/ADR-RES) | GI50 (MOLT-4) | GI50 (IGROV-1) | GI50 (K562) | GI50 (OVCAR-5) | GI50 (HCT-15) | GI50 (MDA-MB-231) | GI50 (SK-MEL-5) | GI50 (OVCAR-4) | GI50 (SF-295) | GI50 (DU-145) | GI50 (HCT-116) | GI50 (Malme-3M) | GI50 (Hs-578T) | GI50 (TK-10) | GI50 (SR) | GI50 (MDA-N)
1 | c1ccc(CCN2CCCCCC2)nc1 | > 100 µM (inactive) | > 100 µM (inactive) | > 100 µM (inactive) | > 100 µM (inactive) | > 100 µM (inactive) | > 100 µM (inactive) | > 100 µM (inactive) | > 100 µM (inactive) | > 100 µM | > 100 µM (inactive) | > 100 µM (inactive) | > 100 µM (inactive) | > 100 µM (inactive) | > 100 µM (inactive) | > 100 µM (inactive) | > 100 µM (inactive) | > 100 µM (inactive) | > 100 µM (inactive) |  | 
2 | CC(C)Sc1nncc(/C(N)=N/O)n1 | > 100 µM (inactive) | > 100 µM (inactive) | 92 µM (inactive) | > 100 µM (inactive) | > 100 µM (inactive) | > 100 µM (inactive) | > 100 µM (inactive) | > 100 µM (inactive) | > 100 µM | > 100 µM (inactive) | > 100 µM (inactive) | > 100 µM (inactive) | > 100 µM (inactive) | > 100 µM (inactive) | > 100 µM (inactive) | > 100 µM (inactive) |  | > 100 µM (inactive) | > 100 µM (inactive) | > 100 µM (inactive)
3 | Cc1cnoc1/N=C1\C=C(Nc2oncc2C)C(=O)c2ccccc21 | > 100 µM (inactive) | 48.3 µM (inactive) | > 100 µM (inactive) |  | > 100 µM (inactive) | > 100 µM (inactive) | 25.5 µM (inactive) | > 100 µM (inactive) | 73.1 µM |  | 33.3 µM (inactive) | > 100 µM (inactive) | > 100 µM (inactive) |  | > 100 µM (inactive) | > 100 µM (inactive) |  | > 100 µM (inactive) | > 100 µM (inactive) | 
4 | COC1CC(C)C(OC)C2=CC(=O)C=C(NC(=O)/C(C)=C/C=C\C(C)C(OC(N)=O)/C(C)=C\C(C)C1OC)C2=O (centres undefined) | 6.15 µM (inactive) | 0.492 µM (active) | 0.313 µM (active) |  | 0.0535 µM (active) | 2.97 µM (inactive) | 0.114 µM (active) | 3.2 µM (inactive) | 1.33 µM |  | 0.804 µM (active) | 0.834 µM (active) | 1.07 µM (active) | 0.643 µM (active) | 0.313 µM (active) | 0.334 µM (active) |  | 2.09 µM (inactive) | 0.0682 µM (active) | 
5 | O=C(N/C(=C\NC1=NCCS1)C(=O)N1CSC[C@@H]1C(=O)O)c1ccccc1 | > 100 µM (inactive) | > 100 µM (inactive) | > 100 µM (inactive) | > 100 µM (inactive) | > 100 µM (inactive) |  | > 100 µM (inactive) | > 100 µM (inactive) | > 100 µM | > 100 µM (inactive) | > 100 µM (inactive) | > 100 µM (inactive) | > 100 µM (inactive) | > 100 µM (inactive) | > 100 µM (inactive) |  |  | > 100 µM (inactive) |  | > 100 µM (inactive)
6 | COc1cc(C=O)cc(/C=N/n2c3ccccc3c3ccccc32)c1O | 6.3 µM (inactive) | 6.67 µM (inactive) | 2.91 µM (inactive) |  | 16.9 µM (inactive) |  | 12 µM (inactive) | 45.1 µM (inactive) | 14.5 µM | 17.4 µM (inactive) |  | 74 µM (inactive) | 3.17 µM (inactive) | > 100 µM (inactive) | 10.9 µM (inactive) | 3.52 µM (inactive) | 6.81 µM (inactive) | 36.9 µM (inactive) | 4.72 µM (inactive) | 
7 | Clc1ccccc1C(n1cc(Br)cn1)n1cc(Br)cn1 | > 10 µM (inactive) | > 10 µM (inactive) | 7.48 µM (inactive) |  | 14.2 µM (inactive) | > 10 µM (inactive) | 19.1 µM (inactive) | 11.4 µM (inactive) | > 10 µM |  | 11 µM (inactive) | > 100 µM (inactive) | 16.2 µM (inactive) |  | 15 µM (inactive) | 17.2 µM (inactive) |  | 23.6 µM (inactive) | 18.8 µM (inactive) | 
8 | COC(=O)C1=C(c2ccc3c(c2)OCO3)O[C@H](c2cc(OC)c(OC)c(OC)c2)[C@H]1COC(C)=O | 10.4 µM (inactive) | 3.32 µM (inactive) | 2.67 µM (inactive) |  | 3.03 µM (inactive) | 6.84 µM (inactive) | 3.22 µM (inactive) | 41.8 µM (inactive) | 5.68 µM |  | 0.973 µM (active) | 7.48 µM (inactive) | 0.282 µM (active) |  | 4.55 µM (inactive) | 1.99 µM (inactive) |  | 13.5 µM (inactive) | 1.35 µM (inactive) | 
9 | Cc1cccnc1N/C=C1\C(=O)NC(=O)N(C)C1=O | > 100 µM (inactive) | > 100 µM (inactive) | 65.6 µM (inactive) |  | > 100 µM (inactive) | 64.1 µM (inactive) |  | > 100 µM (inactive) | > 100 µM |  | > 100 µM (inactive) | > 100 µM (inactive) | > 100 µM (inactive) | > 100 µM (inactive) | > 100 µM (inactive) | 13 µM (inactive) | > 100 µM (inactive) | > 100 µM (inactive) |  | > 100 µM (inactive)
10 | O=C(NN1C(=O)c2ccccc2C1=O)c1ccccc1Nc1ccccc1C(=O)NN1C(=O)c2ccccc2C1=O | > 100 µM (inactive) | > 100 µM (inactive) | > 100 µM (inactive) | > 100 µM (inactive) | > 100 µM (inactive) | > 100 µM (inactive) | > 100 µM (inactive) | > 100 µM (inactive) | > 100 µM | > 100 µM (inactive) | > 100 µM (inactive) | > 100 µM (inactive) | > 100 µM (inactive) | > 100 µM (inactive) | > 100 µM (inactive) | > 100 µM (inactive) |  | > 100 µM (inactive) | > 100 µM (inactive) | > 100 µM (inactive)
11 | Cn1c(=O)c2nc3nnc(C#N)c(N)n3c2n(C)c1=O | 54.1 µM (inactive) | > 100 µM (inactive) | 31.8 µM (inactive) | > 100 µM (inactive) | > 100 µM (inactive) | 87.3 µM (inactive) | > 100 µM (inactive) | > 100 µM (inactive) | > 100 µM | > 100 µM (inactive) | 45.9 µM (inactive) | > 100 µM (inactive) | > 100 µM (inactive) | 72.4 µM (inactive) | > 100 µM (inactive) | 25.2 µM (inactive) |  | > 100 µM (inactive) | > 100 µM (inactive) | > 100 µM (inactive)
12 | CC(=O)C1CC=C(C)CC1 (centres undefined) | > 100 µM (inactive) | > 100 µM (inactive) | > 100 µM (inactive) |  | > 100 µM (inactive) | > 100 µM (inactive) | > 100 µM (inactive) | > 100 µM (inactive) | > 100 µM |  | > 100 µM (inactive) | > 100 µM (inactive) | > 100 µM (inactive) |  | > 100 µM (inactive) | > 100 µM (inactive) |  | > 100 µM (inactive) | > 100 µM (inactive) | 
13 | O=C1c2ccc3c4ccccc4n(-c4ccccc4)c3c2C(=O)N1c1ccc(Cl)cc1 | > 100 µM (inactive) | > 100 µM (inactive) | 37.3 µM (inactive) |  | > 100 µM (inactive) | > 100 µM (inactive) | > 100 µM (inactive) | > 100 µM (inactive) | > 100 µM |  | > 100 µM (inactive) | > 100 µM (inactive) | > 100 µM (inactive) |  | > 100 µM (inactive) | > 100 µM (inactive) |  | > 100 µM (inactive) | > 100 µM (inactive) | 
14 | CC(=O)Nc1ccc(NC(=O)c2c(Cl)c(Cl)c(Cl)c(Cl)c2-c2nc3ccccc3[nH]2)cc1 | 35.4 µM (inactive) | 27.8 µM (inactive) | 15.7 µM (inactive) |  | 21.5 µM (inactive) | 20.5 µM (inactive) | 27.5 µM (inactive) | 67.1 µM (inactive) | 85.1 µM |  | 28.6 µM (inactive) | 45.2 µM (inactive) | 38.3 µM (inactive) | 46.8 µM (inactive) | 32.1 µM (inactive) | 51.4 µM (inactive) | 77.4 µM (inactive) |  | 27.2 µM (inactive) | 35.3 µM (inactive)
15 | CCOC1(COP(=O)(OCc2ccccc2)OCc2ccccc2)COC(COP(=O)(OCc2ccccc2)OCc2ccccc2)(OCC)CO1 (centres undefined) | 89.7 µM (inactive) | > 100 µM (inactive) | 2.99 µM (inactive) |  | 17.4 µM (inactive) | > 100 µM (inactive) | > 100 µM (inactive) | > 100 µM (inactive) | > 100 µM |  | > 100 µM (inactive) | 4.61 µM (inactive) | > 100 µM (inactive) |  | > 100 µM (inactive) | > 100 µM (inactive) |  | > 100 µM (inactive) | > 100 µM (inactive) | 
16 | CC(=O)Nc1ccc2c(c1)C(=O)c1cccc(F)c1-2 | 35.2 µM (inactive) | 38 µM (inactive) | 65.5 µM (inactive) | 48.2 µM (inactive) | 25.3 µM (inactive) | 20.1 µM (inactive) | 50.2 µM (inactive) | 80.9 µM (inactive) | 24.7 µM | 30.4 µM (inactive) | 45.4 µM (inactive) | 50.4 µM (inactive) | 54.2 µM (inactive) | 0.113 µM (active) | 24.2 µM (inactive) | > 100 µM (inactive) | 37.2 µM (inactive) | 55.6 µM (inactive) | 19.9 µM (inactive) | 
17 | CC(C)NC(=O)OCc1c(COC(=O)NC(C)C)c(-c2ccc(Cl)c(Cl)c2)n2c1CCC2 | 28.1 µM (inactive) | 39.8 µM (inactive) | 29.4 µM (inactive) | > 89.7 µM (inactive) | 13.7 µM (inactive) | 50 µM (inactive) | 46.1 µM (inactive) | 44.9 µM (inactive) | 52.7 µM | 84.7 µM (inactive) | 24.9 µM (inactive) | > 66.5 µM (inactive) | 48.1 µM (inactive) | > 100 µM (inactive) | 51.8 µM (inactive) | 47.1 µM (inactive) | > 97.5 µM (inactive) | 41.7 µM (inactive) | 6.37 µM (inactive) | 
